Test results: patent US10870638B2, “Pyridazinone compound or its salt, and herbicide containing it” (ISHIHARA SANGYO KAISHA, LTD., priority 2016, dated 2020)

Key:
Type in all cases: in vivo
[1] = tested on: barnyardgrass (Echinochloa crus-qalli L.); assay: Test Example 1: foliar treatment, growth inhibition rate on 14th day; conditions: active ingredient amount 31 g/ha, 14th day after application, visual, 0 = non-treated, 100 = complete kill
How it was run: (§1)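 Visual 0–100% inhibition scoring (100 = complete kill) at 14 days after foliar treatment of soil-grown seedlings at species-specific leaf stages, with the compound sprayed as a wettable powder or emulsifiable concentrate dilution.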

corn (Zea mays L.) [2] = assay: as above; conditions: active ingredient amount 31 g/ha, 14th day after application, visual, 0 = non-treated, 100 = complete kill
How it was run: as §1

[3] = tested on: crabgrass (Digitaria sanquinalis L.); assay: as above; conditions: active ingredient amount 31 g/ha, 14th day after application, visual, 0 = non-treated, 100 = complete kill
How it was run: as §1

[4] = tested on: green foxtail (Setaria viridis L.); assay: as above; conditions: active ingredient amount 31 g/ha, 14th day after application, visual, 0 = non-treated, 100 = complete kill
How it was run: as §1

[5] = tested on: italian ryegrass (Lolium multiflorum Lam.); assay: as above; conditions: active ingredient amount 31 g/ha, 14th day after application, visual, 0 = non-treated, 100 = complete kill
How it was run: as §1

[6] = tested on: redroot pigweed (Amaranthus retroflexus L.); assay: as above; conditions: active ingredient amount 31 g/ha, 14th day after application, visual, 0 = non-treated, 100 = complete kill
How it was run: as §1

rice (Oryza sativa L.) [7] = assay: as above; conditions: active ingredient amount 31 g/ha, 14th day after application, visual, 0 = non-treated, 100 = complete kill
How it was run: as §1

[8] = tested on: soybean (Glycine max Merr.); assay: as above; conditions: active ingredient amount 31 g/ha, 14th day after application, visual, 0 = non-treated, 100 = complete kill
How it was run: as §1

[9] = tested on: wheat (Triticum aestivum L.); assay: as above; conditions: active ingredient amount 31 g/ha, 14th day after application, visual, 0 = non-treated, 100 = complete kill
How it was run: as §1

[10] = tested on: wild oat (Avena fatua L.); assay: as above; conditions: active ingredient amount 31 g/ha, 14th day after application, visual, 0 = non-treated, 100 = complete kill
How it was run: as §1

[11] = tested on: barnyardgrass (Echinochloa crus-qalli L.); assay: Test Example 2: soil application on the day after sowing, growth inhibition rate on 14th day; conditions: active ingredient amount 31 g/ha, 14th day after application
How it was run: (§2)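 Upland soil pots; sowing, then next-day soil spraying of compound formulations (1,000 L/ha water) at defined a.i. doses. Day-14 visual rating of inhibition on a 0–100 scale, where 100 means complete kill.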

corn (Zea mays L.) [12] = assay: as above; conditions: active ingredient amount 31 g/ha, 14th day after application
How it was run: as §2

[13] = tested on: crabgrass (Digitaris sanquinalis L.); assay: as above; conditions: active ingredient amount 31 g/ha, 14th day after application
How it was run: as §2

[14] = tested on: green foxtail (Setaria viridis L.); assay: as above; conditions: active ingredient amount 31 g/ha, 14th day after application
How it was run: as §2

[15] = tested on: prickly sida (Sida spinosa L.); assay: as above; conditions: active ingredient amount 31 g/ha, 14th day after application
How it was run: as §2

[16] = tested on: redroot pigweed (Amaranthus retroflexus L.); assay: as above; conditions: active ingredient amount 31 g/ha, 14th day after application
How it was run: as §2

rice (Oryza sativa L.) [17] = assay: as above; conditions: active ingredient amount 31 g/ha, 14th day after application
How it was run: as §2

[18] = tested on: soybean (Glycine max Merr.); assay: as above; conditions: active ingredient amount 31 g/ha, 14th day after application
How it was run: as §2

[19] = tested on: velvetleaf (Abutilon theophrasti MEDIC.); assay: as above; conditions: active ingredient amount 31 g/ha, 14th day after application
How it was run: as §2

[20] = tested on: wheat (Triticum aestivum L.); assay: as above; conditions: active ingredient amount 31 g/ha, 14th day after application
How it was run: as §2

| SMILES | Growth inhibition rate (%) Barnyardgrass [1] [%] | Growth inhibition rate (%) Corn (corn (Zea mays L.) [2]) [%] | Growth inhibition rate (%) Crabgrass [3] [%] | Growth inhibition rate (%) Green foxtail [4] [%] | Growth inhibition rate (%) Italian ryegrass [5] [%] | Growth inhibition rate (%) Redroot pigweed [6] [%] | Growth inhibition rate (%) Rice (rice (Oryza sativa L.) [7]) [%] | Growth inhibition rate (%) Soybean [8] [%] | Growth inhibition rate (%) Wheat [9] [%] | Growth inhibition rate (%) Wild oat [10] [%] | Growth inhibition rate (%) Barnyardgrass [11] [%] | Growth inhibition rate (%) Corn (corn (Zea mays L.) [12]) [%] | Growth inhibition rate (%) Crabgrass [13] [%] | Growth inhibition rate (%) Green foxtail [14] [%] | Growth inhibition rate (%) Prickly sida [15] [%] | Growth inhibition rate (%) Redroot pigweed [16] [%] | Growth inhibition rate (%) Rice (rice (Oryza sativa L.) [17]) [%] | Growth inhibition rate (%) Soybean [18] [%] | Growth inhibition rate (%) Velvetleaf [19] [%] | Growth inhibition rate (%) Wheat [20] [%] |
| --- | --- | --- | --- | --- | --- | --- | --- | --- | --- | --- | --- | --- | --- | --- | --- | --- | --- | --- | --- | --- |
| CSCCC(=O)Oc1c(C)nn(C)c(=O)c1-c1cc(Oc2cnc3cc(Cl)ccc3n2)ccc1C [Compound 3-50] | 100 | 15 | 98 | 100 | 93 | 0 | 60 | 10 | 99 | 98 | 99 | 0 | 80 | 98 | 0 | 0 | 0 | 0 | 0 | 0 |
| Cc1ccc(Oc2cnc3cc(Cl)ccc3n2)cc1-c1c(OC(=O)c2ccccn2)c(C)nn(C)c1=O [Compound 3-51] | 99 | 60 | 100 | 100 | 99 | 0 | 60 | 30 | 99 | 99 | 99 | 0 | 95 | 100 | 0 | 0 | 0 | 0 | 0 | 0 |
| Cc1ccc(Oc2cnc3cc(Cl)ccc3n2)cc1-c1c(OC(=O)C(F)(F)F)c(C)nn(C)c1=O [Compound 3-52] | 100 | 35 | 95 | 100 | 90 | 0 | 70 | 20 | 10 | 20 | 99 | 0 | 95 | 100 | 0 | 0 | 0 | 0 | 0 | 0 |
| Cc1ccc(Oc2cnc3cc(Cl)ccc3n2)cc1-c1c(OC(=O)C=CCl)c(C)nn(C)c1=O [Compound 3-54] | 100 | 30 | 98 | 100 | 95 | 0 | 20 | 20 | 93 | 78 | 99 | 0 | 30 | 98 | 0 | 0 | 0 | 0 | 0 | 0 |
| COCCOC(=O)Oc1c(C)nn(C)c(=O)c1-c1cc(Oc2cnc3cc(Cl)ccc3n2)ccc1C [Compound 3-55] | 98 | 50 | 99 | 100 | 99 | 0 | 90 | 30 | 98 | 99 | 80 | 0 | 30 | 60 | 0 | 0 | 0 | 0 | 0 | 0 |
| Cc1ccc(Oc2cnc3cc(Cl)ccc3n2)cc1-c1c(OC(=O)Oc2ccc(F)cc2)c(C)nn(C)c1=O [Compound 3-57] | 100 | 25 | 99 | 100 | 95 | 0 | 0 | 25 | 95 | 99 | 90 | 40 | 30 | 95 | 0 | 0 | 0 | 30 | 0 | 0 |
